This passage reports IC50 results from US11542262B2, “Phosphatidylinositol 3-kinase inhibitors” (NANJING ZHENGXIANG PHARMACEUTICALS CO., LTD., priority 2019, dated 2023).

One test deals with PI3Kγ (Homo sapiens, UniProt P48736). Nature of the test: ADP-Glo luminescent assay, enzymatic activity of PI3K gamma. Format: biochemical. The note with it: ATP 25 μM; read-out: PI3K gamma (nM) inhibitory activity (IC50). How it is done: The compounds would be tested from 1 or 10 μM, 3-fold dilution for 10 doses, in duplicate.
Chain of PI3Kγ (P48736 whole entry, species assumed): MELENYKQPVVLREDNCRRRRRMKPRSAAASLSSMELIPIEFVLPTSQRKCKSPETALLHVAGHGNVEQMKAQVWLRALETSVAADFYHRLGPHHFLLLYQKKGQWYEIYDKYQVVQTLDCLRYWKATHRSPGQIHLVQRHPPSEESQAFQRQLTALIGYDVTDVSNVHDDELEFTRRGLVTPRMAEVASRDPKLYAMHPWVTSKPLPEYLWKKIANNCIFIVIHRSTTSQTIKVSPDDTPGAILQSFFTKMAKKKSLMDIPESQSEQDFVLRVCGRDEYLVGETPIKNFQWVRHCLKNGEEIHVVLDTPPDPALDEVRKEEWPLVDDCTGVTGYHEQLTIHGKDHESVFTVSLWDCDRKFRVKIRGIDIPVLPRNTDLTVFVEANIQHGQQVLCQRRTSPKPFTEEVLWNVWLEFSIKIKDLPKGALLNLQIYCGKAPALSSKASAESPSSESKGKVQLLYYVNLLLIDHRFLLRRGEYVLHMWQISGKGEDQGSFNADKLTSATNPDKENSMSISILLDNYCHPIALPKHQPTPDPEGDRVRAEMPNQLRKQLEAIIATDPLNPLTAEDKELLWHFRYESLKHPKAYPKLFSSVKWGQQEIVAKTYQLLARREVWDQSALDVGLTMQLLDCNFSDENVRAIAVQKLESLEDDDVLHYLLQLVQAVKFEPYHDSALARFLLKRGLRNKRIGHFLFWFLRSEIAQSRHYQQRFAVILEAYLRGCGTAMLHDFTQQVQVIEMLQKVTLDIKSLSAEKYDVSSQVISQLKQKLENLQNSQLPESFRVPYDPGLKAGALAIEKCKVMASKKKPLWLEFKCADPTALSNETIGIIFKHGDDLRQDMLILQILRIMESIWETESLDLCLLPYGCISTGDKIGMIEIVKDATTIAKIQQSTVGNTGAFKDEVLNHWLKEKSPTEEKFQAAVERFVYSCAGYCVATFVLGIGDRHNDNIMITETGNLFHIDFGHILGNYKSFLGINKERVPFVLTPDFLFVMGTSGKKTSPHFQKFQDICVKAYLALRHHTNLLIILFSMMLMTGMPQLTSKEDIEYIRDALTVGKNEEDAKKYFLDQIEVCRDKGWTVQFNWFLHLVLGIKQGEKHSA
Compound preparation: Dilute a compound to 100× of the final desired highest inhibitor concentration in reaction by 100% DMSO. Transfer 100 μl of this compound dilution to a well in a 96-well plate and serially dilute it with DMSO for a total of 10 concentrations.
Kinase reaction: Prepare a solution of PI3K in 1× kinase buffer at 2-fold the final concentration of each reagent in the assay. Control wells contain 1× kinase buffer without enzyme. Prepare substrate solution of PIP2 substrate and ATP in 1× kinase reaction buffer at 2-fold of the final concentration. Add concentration substrate solution to each well to the final concentration. Cover the assay plate, shake to mix, and incubate at room temperature for 1 hour. Add 5 μl of ADP-Glo reagent to each well to stop the reaction. […] Add 10 ul Kinase Detection Reagent to each well, shake 1 min, equilibrate for 30 min before reading on a luminescence plate reader.
Data Analysis: Convert RLU values to percent inhibition values as Percent inhibition=(max−sample RLU)/(max−min)*100. “min”—no enzyme control; “max”—DMSO control. Fit the data in XLFit excel add-in version 5.4.0.8 to obtain IC50 values. Y=Bottom+(Top−Bottom)/(1+(IC50/X)^HillSlope).
A general note: ADP-Glo turns the ADP formed in a reaction into a luminescent signal.

The target in another test is T1, PI3K gamma (Mus musculus, UniProt Q9JHG7).
T1 construct: endogenous in cells; host or cells: RAW264.7
T1 sequence (Q9JHG7 whole entry): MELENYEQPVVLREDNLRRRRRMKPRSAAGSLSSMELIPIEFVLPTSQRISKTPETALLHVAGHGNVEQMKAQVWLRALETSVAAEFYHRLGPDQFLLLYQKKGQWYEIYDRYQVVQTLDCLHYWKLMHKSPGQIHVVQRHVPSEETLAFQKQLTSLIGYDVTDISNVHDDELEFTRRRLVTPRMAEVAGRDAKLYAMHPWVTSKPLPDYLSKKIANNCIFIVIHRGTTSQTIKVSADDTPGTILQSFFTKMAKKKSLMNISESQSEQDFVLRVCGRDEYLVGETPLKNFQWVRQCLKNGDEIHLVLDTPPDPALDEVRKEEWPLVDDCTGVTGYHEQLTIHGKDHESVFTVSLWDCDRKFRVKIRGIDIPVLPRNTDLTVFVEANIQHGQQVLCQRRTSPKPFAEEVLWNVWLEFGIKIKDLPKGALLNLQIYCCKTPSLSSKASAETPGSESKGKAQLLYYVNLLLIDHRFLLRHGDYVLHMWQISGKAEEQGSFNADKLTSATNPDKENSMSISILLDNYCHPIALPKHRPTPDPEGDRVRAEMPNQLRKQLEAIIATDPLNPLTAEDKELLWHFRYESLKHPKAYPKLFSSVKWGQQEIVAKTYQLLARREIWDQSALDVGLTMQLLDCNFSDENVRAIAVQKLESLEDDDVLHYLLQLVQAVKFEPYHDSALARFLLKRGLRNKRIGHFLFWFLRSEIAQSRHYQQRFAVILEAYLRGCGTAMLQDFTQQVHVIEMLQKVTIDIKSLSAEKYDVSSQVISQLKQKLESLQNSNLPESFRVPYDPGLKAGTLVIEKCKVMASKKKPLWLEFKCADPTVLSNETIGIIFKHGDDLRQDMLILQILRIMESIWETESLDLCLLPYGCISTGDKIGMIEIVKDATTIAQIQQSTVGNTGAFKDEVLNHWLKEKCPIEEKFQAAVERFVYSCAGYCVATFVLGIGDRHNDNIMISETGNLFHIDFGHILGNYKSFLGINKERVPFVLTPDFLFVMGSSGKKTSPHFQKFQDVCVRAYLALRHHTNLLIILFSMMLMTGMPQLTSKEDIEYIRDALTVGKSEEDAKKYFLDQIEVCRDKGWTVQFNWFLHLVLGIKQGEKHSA
T1 sequence (Q5SW28 whole entry partner): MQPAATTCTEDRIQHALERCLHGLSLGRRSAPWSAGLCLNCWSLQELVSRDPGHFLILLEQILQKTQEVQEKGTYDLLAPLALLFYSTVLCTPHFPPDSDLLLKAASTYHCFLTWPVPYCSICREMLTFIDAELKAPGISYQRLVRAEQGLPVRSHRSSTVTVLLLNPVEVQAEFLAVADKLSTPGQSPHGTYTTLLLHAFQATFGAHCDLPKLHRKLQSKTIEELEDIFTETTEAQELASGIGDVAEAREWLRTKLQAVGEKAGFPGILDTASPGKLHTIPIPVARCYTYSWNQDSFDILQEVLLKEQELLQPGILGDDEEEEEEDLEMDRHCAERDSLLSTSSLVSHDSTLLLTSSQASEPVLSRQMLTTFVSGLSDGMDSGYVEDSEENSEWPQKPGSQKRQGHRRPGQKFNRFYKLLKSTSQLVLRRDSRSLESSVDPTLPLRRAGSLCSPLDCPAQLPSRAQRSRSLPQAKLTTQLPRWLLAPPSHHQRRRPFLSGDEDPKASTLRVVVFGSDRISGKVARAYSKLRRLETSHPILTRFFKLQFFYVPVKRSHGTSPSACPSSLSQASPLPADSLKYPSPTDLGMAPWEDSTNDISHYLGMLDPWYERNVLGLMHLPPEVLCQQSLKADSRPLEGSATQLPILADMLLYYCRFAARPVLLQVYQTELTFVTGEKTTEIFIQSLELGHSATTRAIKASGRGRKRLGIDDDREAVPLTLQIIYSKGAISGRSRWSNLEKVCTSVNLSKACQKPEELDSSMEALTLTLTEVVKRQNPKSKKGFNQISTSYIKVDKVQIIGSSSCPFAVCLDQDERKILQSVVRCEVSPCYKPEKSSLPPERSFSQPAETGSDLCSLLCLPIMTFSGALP
Put plainly: Raw264.7 cell assay: phosphorylation of AKT in C5a stimulated RAW264.7 cells (AlphaLISA). The note with it: pAKT, read-out: PI3K gamma Raw264.7 cell (nM) cellular activity (IC50). Format: cell-based. As to the method:
This study aims to determine the inhibitory effect of compounds on PI3K gamma and PI3K delta in corresponding cell based assays. PI3K gamma activity was reflected by phosphorylation of AKT in C5a stimulated RAW264.7 cells, and PI3K delta activity was reflected by phosphorylation of AKT in anti-IgM stimulated Raji cells. Phosphorylation of AKT in cells was determined using AlphaLISA technology from PerkinElmer.
Raw264.7 cell assay: Prepare Passage 15 Raw264.7 cell and add 6 μL of 30K cells per well in 384-well plate by multidrop. Centrifuge at 500 RPM for 30 s and incubate for 2 hours at 37° C., 5% CO2. Add 30 nL compound by echo and incubate for 30 min at 37° C., 5% CO2. […] Add 2 μL of 5× lysis buffer by multidrop, incubate for 10 min on a plate shaker. Add 5 μL acceptor mix provided in the kit, centrifuge at 1000 RPM for 1 min. Add 5 μL donor mix provided in the kit, centrifuge at 1000 RPM for 1 min and incubate in dark for 2 hours at 25° C. Read AlphaLISA signal on Envision.
Y=Bottom+(Top−Bottom)/(1+10^((Log IC50−X)*Hill Slope)) X: Log of cpd concentration Y: Inhibition
For orientation: Bead proximity is the source of the signal in Alpha formats.

In the case of `CC(=O)Nc1nc(C)c(-c2cc3c(c(N4CCOCC4)n2)C(=O)N(C(C)C(F)(F)F)C3)s1` (stereo in doubt) [Compound 37, (S)-N-(4-methyl-5-(4-morpholino-3-oxo-2-(1,1,1-trifluoropropan-2-yl)-2,3-dihydro-1H-pyrrolo[3,4-c]pyridin-6-yl)thiazol-2-yl)acetamide], on PI3Kγ, the 50% inhibitory concentration (IC50) (in general, the point on the concentration scale where inhibition reaches its midpoint) was 9 nM.
The same measure, in the same setting: for `[2H]C([2H])([2H])Oc1nc(-c2sc(NC(C)=O)nc2C)cc2c1C(=O)N([C@@H](C)C1CC1)C2` [Compound 43, (S)-N-(5-(2-(1-cyclopropylethyl)-4-(methoxy-d3)-3-oxo-2,3-dihydro-1H-pyrrolo[3,4-c]pyridin-6-yl)-4-methylthiazol-2-yl)acetamide] the value was 2.6 nM.
Turning to `CC[S@@+]([O-])c1cc(-c2sc(NC(C)=O)nc2C)cc2c1C(=O)N([C@@H](C)C1CC1)C2` (racemic) [Compound 13, N-(5-(2-((S)-1-cyclopropylethyl)-7-(ethylsulfinyl)-1-oxoisoindolin-5-yl)-4-methylthiazol-2-yl)acetamide], the figures for the IC50 at PI3K gamma and on PI3Kγ were 22 nM and 3.1 nM, respectively.
Turning to `CC(=O)Nc1nc(C)c(-c2cc3c(c(C(=O)N4CCOCC4)n2)C(=O)N([C@@H](C)C2CC2)C3)s1` [Compound 33, (S)-N-(5-(2-(1-cyclopropylethyl)-4-(morpholine-4-carbonyl)-3-oxo-2,3-dihydro-1H-pyrrolo[3,4-c]pyridin-6-yl)-4-methylthiazol-2-yl)acetamide], at PI3Kγ, the IC50 was 6.5 nM.
Still for that read-out and setting: for `CC(=O)Nc1nc(C)c(-c2cc3c(c(C(N)=O)n2)C(=O)N([C@@H](C)C2CC2)C3)s1` [Compound 31, (S)-6-(2-acetamido-4-methylthiazol-5-yl)-2-(1-cyclopropylethyl)-3-oxo-2,3-dihydro-1H-pyrrolo[3,4-c]pyridine-4-carboxamide] the value was 2.3 nM.
With `CC(=O)Nc1nc(C)c(-c2cc3c(c(N4CCCC4=O)n2)C(=O)N([C@@H](C)C2CC2)C3)s1` [Compound 25, (S)-N-(5-(2-(1-cyclopropylethyl)-3-oxo-4-(2-oxopyrrolidin-1-yl)-2,3-dihydro-M-pyrrolo[3,4-c]pyridin-6-yl)-4-methylthiazol-2-yl)acetamide], the values for the IC50 on PI3K gamma and at PI3Kγ were 446 nM and 3.8 nM, respectively.
On the same counts, the results for `CC(=O)Nc1nc(C)c(-c2cc3c(c(CN4CCOCC4)n2)C(=O)N([C@@H](C)C2CC2)C3)s1` [Compound 54, (S)-N-(5-(2-(1-cyclopropylethyl)-4-(morpholinomethyl)-3-oxo-2,3-dihydro-1H-pyrrolo[3,4-c]pyridin-6-yl)-4-methylthiazol-2-yl)acetamide] are 17 nM and 4.6 nM.
On the same counts, the results for `CC(=O)Nc1nc(C)c(-c2cc3c(c(OCCO)n2)C(=O)N([C@@H](C)C2CC2)C3)s1` [Compound 50, (S)-N-(5-(2-(1-cyclopropylethyl)-4-(2-hydroxyethoxy)-3-oxo-2,3-dihydro-1H-pyrrolo[3,4-c]pyridin-6-yl)-4-methylthiazol-2-yl)acetamide] are 20 nM and 1 nM.
Regarding `Cc1nc(NC(=O)C(C)C)sc1-c1cc2c(c(P(C)(C)=O)c1)C(=O)N([C@@H](C)C1CC1)C2` [Compound 4, (S)-N-(5-(2-(1-cyclopropylethyl)-7-(dimethylphosphoryl)-1-oxoisoindolin-5-yl)-4-methylthiazol-2-yl)isobutyramide], the 50% inhibitory concentration (IC50) at PI3K gamma stood at 1850 nM; on PI3Kγ, 4.5 nM.
`CC(=O)Nc1nc(C)c(-c2ccc3c(n2)CN([C@@H](C)C2CC2)C3=O)s1` [Compound 9, (S)-N-(5-(6-(1-cyclopropylethyl)-5-oxo-6,7-dihydro-5H-pyrrolo[3,4-b]pyridin-2-yl)-4-methylthiazol-2-yl)acetamide]: the concentration for half-maximal inhibition (IC50) at PI3Kγ turned out to be 22 nM.
Still for that read-out and setting: for `CC(=O)Nc1nc(C(F)F)c(-c2cc3c(c([S@@+](C)[O-])c2)C(=O)N([C@@H](C)C2CC2)C3)s1` (racemic) [Compound 18, N-(5-(2-((S)-1-cyclopropylethyl)-7-(methylsulfinyl)-1-oxoisoindolin-5-yl)-4-(difluoromethyl)thiazol-2-yl)acetamide] the value was 16 nM.
Consider `CC(=O)Nc1nc(C)c(-c2cc3c(c(N4CC(S(C)(=O)=O)C4)n2)C(=O)N([C@@H](C)C2CC2)C3)s1` [Compound 49, (S)-N-(5-(2-(1-cyclopropylethyl)-4-(3-(methylsulfonyl)azetidin-1-yl)-3-oxo-2,3-dihydro-1H-pyrrolo[3,4-c]pyridin-6-yl)-4-methylthiazol-2-yl)acetamide], for which the figures for the IC50 at PI3K gamma and at PI3Kγ were 38 nM and 1 nM, respectively.
In the case of `CC(=O)Nc1nc(C)c(-c2cc3c(c(OC4COC4)n2)C(=O)N([C@@H](C)C2CC2)C3)s1` [Compound 52, (S)-N-(5-(2-(1-cyclopropylethyl)-4-(oxetan-3-yloxy)-3-oxo-2,3-dihydro-1H-pyrrolo[3,4-c]pyridin-6-yl)-4-methylthiazol-2-yl)acetamide], the results for the IC50 at PI3K gamma and on PI3Kγ were 12 nM and 1.1 nM, respectively.
For `CC(=O)Nc1nc(C)c(-c2cc3c(c(NC(=O)N(C)C)n2)C(=O)N([C@@H](C)C2CC2)C3)s1` [Compound 28, (S)-N-(5-(2-(1-cyclopropylethyl)-4-(3,3-dimethylureido)-3-oxo-2,3-dihydro-1H-pyrrolo[3,4-c]pyridin-6-yl)-4-methylthiazol-2-yl)acetamide] the same measures were 65 nM and 1.5 nM.
For `CC(=O)Nc1nc(C)c(-c2cc3c(c([S+]([O-])C(C)C)c2)C(=O)N([C@@H](C)C2CC2)C3)s1` (mixture of isomers) [Compound 14, N-(5-(2-((S)-1-cyclopropylethyl)-7-(isopropylsulfinyl)-1-oxoisoindolin-5-yl)-4-methylthiazol-2-yl)acetamide] the same measures were 27 nM and 4.2 nM.
For `CCP(=O)(CC)c1cc(-c2sc(NC(C)=O)nc2C)cc2c1C(=O)N([C@@H](C)C1CC1)C2` [Compound 5, (S)-N-(5-(2-(1-cyclopropylethyl)-7-(diethylphosphoryl)-1-oxoisoindolin-5-yl)-4-methylthiazol-2-yl)acetamide] the same measures were 307 nM and 5.9 nM.
With `CC(=O)Nc1nc(Cl)c(-c2cc3c(c(N4CCOCC4)n2)C(=O)N([C@@H](C)C2CC2)C3)s1` [Compound 53, (S)-N-(4-chloro-5-(2-(1-cyclopropylethyl)-4-morpholino-3-oxo-2,3-dihydro-1H-pyrrolo[3,4-c]pyridin-6-yl)thiazol-2-yl)acetamide], the half-maximal inhibitory concentration (IC50) at PI3Kγ was determined as 1.8 nM.
For the compound `CC(=O)Nc1nc(C)c(-c2cc3c(c(C(=O)O)n2)C(=O)N([C@@H](C)C2CC2)C3)s1` [Compound 30, (S)-6-(2-acetamido-4-methylthiazol-5-yl)-2-(1-cyclopropylethyl)-3-oxo-2,3-dihydro-1H-pyrrolo[3,4-c]pyridine-4-carboxylic acid], on PI3Kγ, the IC50 was 56 nM.
On the same count and under the same terms, with `Cc1nc(NC(=O)C2CC2)sc1-c1cc2c(c(P(C)(C)=O)c1)C(=O)N([C@@H](C)C1CC1)C2` [Compound 3, (S)-N-(5-(2-(1-cyclopropylethyl)-7-(dimethylphosphoryl)-1-oxoisoindolin-5-yl)-4-methylthiazol-2-yl)cyclopropanecarboxamide] the figure was 7.7 nM; with `CC(=O)Nc1nc(C)c(-c2cc3c(c(NC(=O)C4CC4C#N)n2)C(=O)N([C@@H](C)C2CC2)C3)s1` (stereo partly drawn) [Compound 45, N-(6-(2-acetamido-4-methylthiazol-5-yl)-2-((S)-1-cyclopropylethyl)-3-oxo-2,3-dihydro-1H-pyrrolo[3,4-c]pyridin-4-yl)-2-cyanocyclopropane-1-carboxamide], 0.8 nM; with `CC(=O)Nc1nc(C)c(-c2cc3c(c(OC4CCOC4)n2)C(=O)N([C@@H](C)C2CC2)C3)s1` (stereo partly drawn) [Compound 51, N-(5-(2-((S)-1-cyclopropylethyl)-3-oxo-4-((tetrahydrofuran-3-yl)oxy)-2,3-dihydro-1H-pyrrolo[3,4-c]pyridin-6-yl)-4-methylthiazol-2-yl)acetamide], 0.65 nM.
Take `CC(=O)Nc1nc(C)c(-c2cc3c(c(N4CCC(O)C4)n2)C(=O)N([C@@H](C)C2CC2)C3)s1` (stereo partly drawn) [Compound 47, N-(5-(2-((S)-1-cyclopropylethyl)-4-(3-hydroxypyrrolidin-1-yl)-3-oxo-2,3-dihydro-1H-pyrrolo[3,4-c]pyridin-6-yl)-4-methylthiazol-2-yl)acetamide]: the half-maximal inhibitory concentration (IC50) at PI3Kγ was 0.61 nM.
